Results: US20240316150A1, “METHOD FOR PREVENTION OR TREATMENT OF DISEASES CAUSED BY PATHOGEN-[…] PATTERN” (priority 2021, published 2024)
Like-named read-outs stand apart in the source and are kept apart here. Ends that are not written are not given here.

Key:
type-1 collagen, α-1 = assay: Type-1 collagen mRNA in liver, carbon tetrachloride plus LPS mice; assay type: in vivo, BALB/c mice; conditions: LPS 0.3 mg/kg i.p. for 2 weeks on carbon tetrachloride injury
Procedure: In one experiment, adult male BALB/c mice were intraperitoneally injected with escalated dosage of carbon tetrachloride (CC14, 1.0-2.5 ml/kg body weight) for 2 weeks. Then, some adult male BALB/c mice were given additional lipopolysaccharides (LPS, 0.3 mg/kg, i.p.) for 2 weeks. At such condition, some mice were supplemented with cholestyramine at 3%w/w in the chow for 4 weeks. […] In normal liver tissues, HSCs are quiescent, featured as storing vitamin A and producing type-4 collagen and other loose extracellular matrix (ECM). The high expression of collagen and the formation of fibrotic septa are common in various liver diseases. […] Endotoxemia is common in various hepatic fibrosis and cirrhosis, caused by alcohol, drugs, viruses (such as HBV and HCV), and immune system disorders. Therefore, the current disclosure can be applied for treatment of various forms of liver fibrosis.

interleukin-1β (IL-1β) = assay: IL-1β mRNA in liver, carbon tetrachloride plus LPS mice; assay type: in vivo, BALB/c mice; conditions: LPS 0.3 mg/kg i.p. for 2 weeks on carbon tetrachloride injury
Procedure: In one experiment, adult male BALB/c mice were intraperitoneally injected with escalated levels of carbon tetrachloride (CC14, 1.0-2.5 ml/kg body weight) for 2 weeks. Then, some mice were given lipopolysaccharides (LPS, 0.3 mg/kg, i.p.) for an additional 2 weeks. Under the condition, some mice were supplemented with cholestyramine at 3 w/w. % in the chow for an additional 4 weeks. […] It is known that PAMPs activate many types of cells to produce interleukin-1 (IL-1), leading to fever, cytokine storms, and tissue damage. In this current disclosure, the cationic polymer in the oral administration can be used for sequestration of intestinal endotoxins, which consequently can alleviate drug-induced liver inflammation, a common mechanism of action for many types of liver injury and fibrogenesis.

monocytes [1] = assay type: cell-based; conditions: Example 26, FIG. 22
monocytes [2] = assay type: cell-based
[3] = tested on: α-defensin-5 (DEFA5) produced by Paneth cells; assay: α-defensin-5 expression in ileum, carbon tetrachloride plus LPS mice; assay type: in vivo, BALB/c mice; conditions: LPS 0.3 mg/kg i.p. for 2 weeks
Procedure: In one experiment, adult male BALB/c mice were intraperitoneally injected with escalated dosage of carbon tetrachloride (CC14 from 1.0 to 2.5 ml/kg body weight) for 2 weeks. Then, some mice were given lipopolysaccharides (LPS, 0.3 mg/kg, i.p.) for an additional 2 weeks. […] Lower DEFA5 levels worsen gut microbiota into dysbiosis state, and conversely, increased level of endotoxin may contribute to liver inflammation, leading to tissue injury and fibrogenesis.

Muc-2 = Muc-2 mRNA in ileum (RT-qPCR), carbon tetrachloride plus LPS mice; assay type: in vivo, BALB/c mice; conditions: LPS 0.3 mg/kg i.p. for 2 weeks
Procedure: In one experiment, adult male BALB/c mice were intraperitoneally injected with escalated dosage of carbon tetrachloride (CC14 from 1.0 to 2.5 ml/kg body weight) for an additional 2 weeks. Then, some mice were given lipopolysaccharides (LPS, 0.3 mg/kg, i.p.) for an additional 2 weeks.

[4] = Sirius Red staining of liver, carbon tetrachloride plus LPS mice; assay type: in vivo, BALB/c mice; conditions: LPS 0.3 mg/kg i.p. for 2 weeks on carbon tetrachloride injury
Procedure: In another experiment, adult male BALB/c mice were injected intraperitoneally with escalated dosage of carbon tetrachloride (CC14 from 1.0 to 2.5 ml/kg body weight) for 2 weeks. And then some mice were given lipopolysaccharides injection (LPS at 0.3 mg/kg, i.p.) for an additional 2 weeks. Under sustained injury conditions, some mice were supplemented with cholestyramine at 3% w/w in the chow for another 4 weeks. […] It is well known that hepatic injury induced activation of hepatic stellate cells (HSCs) mediate hepatic fibrosis.

occludin = assay: Occludin mRNA in ileum (RT-qPCR), carbon tetrachloride plus LPS mice; assay type: in vivo, BALB/c mice; conditions: LPS 0.3 mg/kg i.p. for 2 weeks
Procedure: The tight junction proteins are essential components of intestinal epithelial cells and the innate immune system. In one experiment, adult male BALB/c mice were intraperitoneally injected with carbon tetrachloride (CC14, 1.0-2.5 ml/kg body weight) for 2 weeks. Then, some mice were given lipopolysaccharides (LPS, 0.3 mg/kg, i.p.) for an additional 2 weeks.

[5] = Bloodstream endotoxin (LAL test), carbon tetrachloride mice given DEFA5; assay type: in vivo, BALB/c mice; conditions: 10 mg twice a week for 8 weeks, continued carbon tetrachloride
Procedure: In one experiment, adult male BALB/c mice were given intraperitoneal injections of carbon tetrachloride for 4 weeks. While continuing administration of carbon tetrachloride, some mice were given the synthetic human α-defensin-5 (DEFA5) (10 mg, twice a week) for 8 weeks.

[6] = Sirius Red staining for liver fibrosis, carbon tetrachloride mice given DEFA5; assay type: in vivo, BALB/c mice; conditions: oral 10 mg twice a week for 8 weeks, continued carbon tetrachloride
Excerpt: Paneth cells secret innate immune substances, such as antimicrobial peptides, to maintain intestinal homeostasis. The epithelial cells of the small intestine and the innate immune substances maintain the gastrointestinal barrier function, protect against the penetration of commensal and pathogenic bacteria, and safeguard intestinal epithelial cells. The antimicrobial peptides can suppress the small intestinal overgrowth of bacteria (SIBO), a common pathologic condition for many metabolic diseases. In one experiment, adult male BALB/c mice were given intraperitoneal injections of carbon tetrachloride for 4 weeks. While continuing administration of carbon tetrachloride, some mice were orally given synthetic human α-defensin-5 (10 mg, twice a week) for an additional 8 weeks (shown in FIG. 26A). […] The mechanism of action by the DEFA5 as API can be explained in part by inhibiting PAMPs, thereby reducing liver inflammation and damage, which in turn reduces the transdifferentiation of HSC and lowers liver fibrosis score.

[7] = Intestinal permeability by FITC levels in bloodstream, carbon tetrachloride mice; assay type: in vivo, BALB/c mice; conditions: 10 mg twice a week for 8 weeks, continued carbon tetrachloride
Procedure: In one experiment, adult male BALB/c mice were given intraperitoneal injections of carbon tetrachloride for 4 weeks; while continuing administration of carbon tetrachloride, some mice were given the synthetic human α-defensin-5 (DEFA5) (10 mg, twice a week) for 8 weeks. Finally, the mice were given fluorescein isothiocyanate (FITC). […] Vitamin D deficiency affects the expression of the defensins secreted by Paneth cells, resulting in small intestinal bacterial overgrowth (SIBO) and the translocation of PAMPs into the bloodstream, thereby causing chronic inflammation. Therefore, the defensins, as a therapeutic API, can treat various gastrointestinal disease and alleviate drug-induced liver fibrosis.

gut microbiota = assay: Distribution of bacterial microbiota in feces, carbon tetrachloride mice given DEFA5; assay type: in vivo, BALB/c mice; conditions: 10 mg twice a week for 8 weeks
Procedure: In one experiment, adult male BALB/c mice were given intraperitoneal injections of carbon tetrachloride for 4 weeks; while continuing administration of carbon tetrachloride, some mice were given the synthetic human α-defensin-5 (DEFA5) (10 mg, twice a week) for 8 weeks.

lipopolysaccharides [LPS]
drug-induced cirrhosis, type-I collagen mRNA (type-1 collagen, α-1): exacerbates the drug-induced cirrhosis | drug-induced hepatic inflammation, mRNA expression of IL-1B in the liver (interleukin-1β (IL-1β)): exacerbates the drug-induced hepatic inflammation | increase of mRNA expression of IL-1B (monocytes [1]): about 9 times | increase of mRNA expression of TNF-α (monocytes [2]; Example 25, FIG. 21): about 8 times | increase of mRNA expression of TNF-α (monocytes [2]; Example 27, FIG. 23): about 10 times | expression levels of α-defensin-5 (DEFA5) in ileum tissue [3]: suppressed the expression levels of α-defensin-5 (DEFA5) | mRNA expression of Muc-2 by Goblet cells in ileum tissue (Muc-2): reduced the mRNA expression of Muc-2 | drug-induced cirrhosis, fibrotic histological analysis (Sirius Red) [4]: exacerbate the drug-induced cirrhosis | mRNA expression of occludin gene in ileum tissues (occludin): suppressed the mRNA expression of occludin gene

α-defensin-5 (ATCYCRHGRCATRESLSGVCEISGRLYRLCC; not fully specified (bridges); also: three disulfide bonds) [DEFA5, ATCYCRHGRCATRESLSGVCEISGRLYRLCCR, three disulfide bonds; antimicrobial peptide of Paneth cells]
endotoxin translocation into the bloodstream [5]: reduced endotoxin translocation into the bloodstream | liver fibrosis (Sirius Red) [6]: reduced liver fibrosis caused by liver injury | intestinal permeability (FITC levels in bloodstream) [7]: reduce intestinal permeability | balance of intestinal bacterial microbiota (gut microbiota; continued carbon tetrachloride): balanced the intestinal bacterial microbiota | abundance of Bacteroidetes (gut microbiota; feces): increasing the abundance | abundance of Firmicutes (gut microbiota; feces): reducing the abundance | abundance of gamma-Proteobacteria (gut microbiota; feces): reducing the abundance
